The values below come from patent publication US12077503B2, “Substituted cyclic amides and their use as herbicides” (FMC CORPORATION, priority 2015, dated 2024).

Common to all, as to assay type: in vivo
Test [1] deals with barnyardgrass (Echinochloa crus-galli). Put plainly: Test B flooded paddy test. Conditions: Echinochloa crus-galli, Flood, 250 g ai/ha; scale of 0 to 100 where 0 is no effect and 100 is complete control; read-out: Barnyardgrass plant response rating. In outline: (§1)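 Visual ratings (0 none to 100 complete control) are relative to untreated plants, taken 13–15 d after treatment in a greenhouse. Test material went straight into floodwater standing 3 cm above the soil, kept constant, on plants at the 2-leaf stage.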

In test [2] the test system is ducksalad (Heteranthera limosa). Put plainly: Test B flooded paddy test. The settings on record: Heteranthera limosa, Flood, 250 g ai/ha; scale of 0 to 100 where 0 is no effect and 100 is complete control; read-out: Ducksalad plant response rating. Summed up:
as §1

The subject of test [3] is sedge, umbrella (small-flower umbrella sedge, Cyperus difformis). Put plainly: Test B flooded paddy test. The settings on record: Cyperus difformis, Flood, 250 g ai/ha; scale of 0 to 100 where 0 is no effect and 100 is complete control; read-out: Sedge, Umbrella plant response rating. Summed up:
as §1

The subject of a further test is rice (Oryra sativa). Nature of the test: Test B flooded paddy test. Conditions: Oryza sativa, Flood, 250 g ai/ha; scale of 0 to 100 where 0 is no effect and 100 is complete control; read-out: Rice plant response rating. In outline:
as §1

Test [4] relates to ragweed (common ragweed, Ambrosia elatior). Put plainly: Test A postemergence. The settings on record: Ambrosia artemisiifolia, post-emergence, 240 h; for pest or weed control at 125 g/ha: 125 g ai/ha. Summed up: (§2)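 Visual injury scores from 0, no effect, to 100, complete control, were assigned versus untreated controls roughly 10 d after treatment in the greenhouse. Test chemicals, formulated with surfactant in a non-phytotoxic solvent, were applied to planted seeds as a preemergence soil spray or postemergence to one- to two-leaf plants 2 to 10 cm tall, in loam–sand soil.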

Test [5] has as its system barnyardgrass (Echinochloa crus-galli). Nature of the test: Test A postemergence. The settings on record: Echinochloa crus-galli, post-emergence, 240 h; for pest or weed control at 125 g/ha: 125 g ai/ha. Summed up:
as §2

Test [6] has as its system Galium (catchweed bedstraw, Galium aparine). Put plainly: Test A postemergence. Conditions: Galium, post-emergence, 240 h; for pest or weed control at 125 g/ha: 125 g ai/ha. In outline:
as §2

For a further test, the system named is corn (Zea mays). Nature of the test: Test A postemergence. Conditions: Zea mays, post-emergence, 240 h. Summed up:
as §2

The test system of test [7] is ragweed (common ragweed, Ambrosia elatior). Put plainly: Test A preemergence. The settings on record: Ambrosia artemisiifolia, pre-emergence, 240 h; for pest or weed control at 125 g/ha: 125 g ai/ha. In outline: as §2
For test [8], the system named is pigweed (Amaranthus retroflexus). Put plainly: Test A preemergence. The settings on record: Amaranthus retroflexus, pre-emergence, 240 h; for pest or weed control at 125 g/ha: 125 g ai/ha.
Test [9] concerns giant foxtail (Setaria faberii). Put plainly: Test A preemergence. The settings on record: Setaria faberi, pre-emergence, 240 h; for pest or weed control at 125 g/ha: 125 g ai/ha. In outline: as §2
Test [10] has as its system barnyardgrass (Echinochloa crus-galli). Put plainly: Test A preemergence. Conditions: Echinochloa crus-galli, pre-emergence, 240 h; for pest or weed control at 125 g/ha: 125 g ai/ha. In outline: as §2
For test [11], the system named is ryegrass, Italian (Italian ryegrass, Lolium multiflorum). Nature of the test: Test A preemergence. The settings on record: Lolium multiflorum, pre-emergence, 240 h; for pest or weed control at 125 g/ha: 125 g ai/ha. In outline:
as §2

For a further test, the system named is Kochia (Kochia scoparia). Put plainly: Test A preemergence. Conditions: Bassia scoparia, pre-emergence, 240 h; for pest or weed control at 125 g/ha: 125 g ai/ha. Summed up: as §2

Each structure is given as a SMILES string. Read-outs that look alike come from different tables or passages of the source.

In the case of `Cc1c(F)ccc([C@H]2CN(C)C(=O)[C@@H]2C(=O)Nc2ccc(F)cc2F)c1F` [Compound 835], the pest or weed control at 250 g/ha was found to be 50% in test [1], 70% in test [2], 0% in test [3] and 20% with rice (Oryra sativa). The pest or weed control at 125 g/ha in test [4] (postemergence, visual injury rating after approximately 10 d, read-out: Ragweed plant response rating (0 to 100 scale, 0 no effect, 100 complete control)) was 0%; in [5] (postemergence, visual injury rating after approximately 10 d, read-out: Barnyardgrass plant response rating (0 to 100 scale, 0 no effect, 100 complete control)), 90%; in [6] (postemergence, visual injury rating after approximately 10 d, read-out: Galium plant response rating (0 to 100 scale, 0 no effect, 100 complete control)), 30%; in test [7] (preemergence, 0 to 100 scale where 0 is no effect and 100 is complete control, read-out: Ragweed plant response rating), 0%; in [8] (preemergence, 0 to 100 scale where 0 is no effect and 100 is complete control, read-out: Pigweed plant response rating) it was 20%; in [9] (preemergence, 0 to 100 scale where 0 is no effect and 100 is complete control, read-out: Foxtail, Giant plant response rating) it was 90%. Also, the pest or weed control at 125 g/ha is 90% in test [10] (preemergence, 0 to 100 scale where 0 is no effect and 100 is complete control, read-out: Barnyardgrass plant response rating); 30% in test [11] (preemergence, 0 to 100 scale where 0 is no effect and 100 is complete control, read-out: Ryegrass, Italian plant response rating); 80% in the test with Kochia (Kochia scoparia) (preemergence, 0 to 100 scale where 0 is no effect and 100 is complete control, read-out: Kochia plant response rating). For the same molecule, in the test with corn (Zea mays) (125 g ai/ha, postemergence, visual injury rating after approximately 10 d, read-out: Corn plant response rating (0 to 100 scale, 0 no effect, 100 complete control)), the plant injury at 125 g/ha amounted to 30%. For the same molecule, the pest or weed control at 500 g/ha in test [7] (500 g ai/ha, Preemergence, visual injury vs untreated controls after approximately 10 d, read-out: Ragweed plant response rating (0 to 100 scale where 0 is no effect and 100 is complete control)) is 0%; in test [8] (500 g ai/ha, Preemergence, visual injury vs untreated controls after approximately 10 d, read-out: Pigweed plant response rating (0 to 100 scale where 0 is no effect and 100 is complete control)) it was 40%; in test [9] (500 g ai/ha, Preemergence, visual injury vs untreated controls after approximately 10 d, read-out: Foxtail, Giant plant response rating (0 to 100 scale where 0 is no effect and 100 is complete control)), 100%; in [10] (500 g ai/ha, Preemergence, visual injury vs untreated controls after approximately 10 d, read-out: Barnyardgrass plant response rating (0 to 100 scale where 0 is no effect and 100 is complete control)) it was 100%; in test [11] (500 g ai/ha, Preemergence, visual injury vs untreated controls after approximately 10 d, read-out: Ryegrass, Italian plant response rating (0 to 100 scale where 0 is no effect and 100 is complete control)) it was 70%; with Kochia (Kochia scoparia) (500 g ai/ha, Preemergence, visual injury vs untreated controls after approximately 10 d, read-out: Kochia plant response rating (0 to 100 scale where 0 is no effect and 100 is complete control)) it was 90%.
Take `CCOc1cc([C@H]2CN(C)C(=O)[C@@H]2C(=O)Nc2cccc(F)c2F)cc(C(F)(F)F)c1` [Compound 971]: the pest or weed control at 250 g/ha in test [1] came out at 60%; in test [2] it was 85%; in test [3], 0%; with rice (Oryra sativa) it was 45%. Also, the pest or weed control at 125 g/ha was found to be 0% in test [4] (Postemergence, visual injury after approximately 10 d, 0 to 100 scale where 0 is no effect and 100 is complete control, read-out: Plant response rating, Ragweed); 80% in [5] (Postemergence, visual injury after approximately 10 d, 0 to 100 scale where 0 is no effect and 100 is complete control, read-out: Plant response rating, Barnyardgrass); 40% in test [6] (Postemergence, visual injury after approximately 10 d, 0 to 100 scale where 0 is no effect and 100 is complete control, read-out: Plant response rating, Galium); 20% in test [7] (Preemergence, visual injury rating after approximately 10 d, read-out: Ragweed plant response rating (0 to 100 scale, 0 is no effect, 100 is complete control)); 20% in [8] (Preemergence, visual injury rating after approximately 10 d, read-out: Pigweed plant response rating (0 to 100 scale, 0 is no effect, 100 is complete control)); 90% in test [9] (Preemergence, visual injury rating after approximately 10 d, read-out: Foxtail, Giant plant response rating (0 to 100 scale, 0 is no effect, 100 is complete control)). In addition, the pest or weed control at 125 g/ha was determined as 90% in test [10] (Preemergence, visual injury rating after approximately 10 d, read-out: Barnyardgrass plant response rating (0 to 100 scale, 0 is no effect, 100 is complete control)); 80% in test [11] (Preemergence, visual injury rating after approximately 10 d, read-out: Ryegrass, Italian plant response rating (0 to 100 scale, 0 is no effect, 100 is complete control)); 0% with Kochia (Kochia scoparia) (Preemergence, visual injury rating after approximately 10 d, read-out: Kochia plant response rating (0 to 100 scale, 0 is no effect, 100 is complete control)). In addition, the pest or weed control at 31 g/ha worked out at 0% in test [4] (Postemergence, 31 g ai/ha, visual injury after approx. 10 d, 0 to 100 scale, 0 no effect, 100 complete control, read-out: Plant response rating, Ragweed); 50% in test [5] (Postemergence, 31 g ai/ha, visual injury after approx. 10 d, 0 to 100 scale, 0 no effect, 100 complete control, read-out: Plant response rating, Barnyardgrass); 20% in test [6] (Postemergence, 31 g ai/ha, visual injury after approx. 10 d, 0 to 100 scale, 0 no effect, 100 complete control, read-out: Plant response rating, Galium); 0% in test [7] (Preemergence, 31 g ai/ha, 0 to 100 scale (0 no effect, 100 complete control), read-out: Plant response rating, Ragweed); 20% in test [8] (Preemergence, 31 g ai/ha, 0 to 100 scale (0 no effect, 100 complete control), read-out: Plant response rating, Pigweed); 70% in [9] (Preemergence, 31 g ai/ha, 0 to 100 scale (0 no effect, 100 complete control), read-out: Plant response rating, Foxtail, Giant). Moreover, the pest or weed control at 31 g/ha in test [10] (Preemergence, 31 g ai/ha, 0 to 100 scale (0 no effect, 100 complete control), read-out: Plant response rating, Barnyardgrass) was 70%; in [11] (Preemergence, 31 g ai/ha, 0 to 100 scale (0 no effect, 100 complete control), read-out: Plant response rating, Ryegrass, Italian) it was 50%; in the test on Kochia (Kochia scoparia) (Preemergence, 31 g ai/ha, 0 to 100 scale (0 no effect, 100 complete control), read-out: Plant response rating, Kochia) it was 0%. Further, the Corn plant response rating (crop injury, 0 = no effect, 100 = complete kill) at 125 g/ha in the test with corn (Zea mays) (125 g ai/ha, Postemergence, visual injury after approximately 10 d, 0 to 100 scale where 0 is no effect and 100 is complete control) was 70%. This molecule returned a Corn plant response rating (crop injury, 0 = no effect, 100 = complete kill) at 31 g/ha in the test with corn (Zea mays) (Postemergence, 31 g ai/ha, visual injury after approx. 10 d, 0 to 100 scale, 0 no effect, 100 complete control) of 70%.
